Source: patent publication US20100324132A1, “METHODS AND COMPOSITIONS FOR PROMOTING WOUND HEALING” (priority 2005, published 2010)

Assays:
[1] = test system: Pseudomonas aeruginosa; experiment: Antibiotic resistance profile, disc diffusion; further: key: R = resistant; I = intermediate; S = sensitive; format: cell-based; conditions: P. aeruginosa isolated from burn patients
[2] = test system: Staphylococcus aureus; experiment: Antibiotic resistance profile, disc diffusion; further: key: R = resistant; I = intermediate; S = sensitive; format: cell-based; conditions: S. aureus isolated from burn patients
[3] = test system: Enterococcus faecalis; experiment: Antibiotic resistance profile, disc diffusion; further: key: R = resistant; I = intermediate; S = sensitive; format: cell-based; conditions: E. faecalis isolated from burn patients
[4] = test system: surface ulcers with multiple resistant pathogenic species; experiment: Bath treatment of ulcerated Koi; format: in vivo, Koi (Cyprinus carpio); conditions: antibiotics injected directly into the fish before the bath treatment
Experimental: An immersion treatment of the infected animals of 5 to 10 minutes on alternate days over a six day period promoted healing of most ulcers.
All of the treated fish had previously been given injections of Azactam, Baytril, and Amikacin. […] Among the species of bacteria found in the ulcers of the fish were representatives of the genera Aeromonas, Proteus, Klebsiella, Staphylococcus, Streptococcus, Enterobacter and Flavobacterium.
All fish were housed in a communal “hospital tank” before treatment and moved to an isolation tank after each treatment. The temperature of the bath was adjusted to that of the hospital tank temperature, 24 C, and adequate aeration was supplied to the treatment tank. Eight of the fish had external ulcers of various dimensions. Two of the fish were dropsied.

[5] = test system: Enterococcus faecalis; experiment: MIC/MBC and checkerboard of EDTA-Tris and neomycin; format: cell-based; conditions: in 50 mM Tris
Experimental: (§1) This example describes a method for determining the FIC values set forth in Example 4. […] Agents and Chem. pp. 210-217 (1967); and Sparks et al., Vet. Res. Comm. 18:241-249 (1994). Each of the foregoing publications are incorporated herein by reference.
(§2) Then 0.05 ml of an 18-hour old culture of a test organism, containing […] colony-forming units (CFU) ml, were added to each well. Controls for the culture and media were included in each plate. Plates were covered and incubated at 37° C. for 18-24 hours.
(§3) To generate isobolograms, FICs of the two test solutions were plotted individually on the x-axis and y-axis to determine the effect of combining the two test solutions on bacterial growth. A line that curves away from the zero point and the coordinates indicated antagonism. […] Goodman and Gilman, pp. 1085-1086 (Macmillan Publishing Co., New York, 1985); Sabath, L. D., Antimicrob. Agents and Chem. pp. 210-217 (1967) and incorporated herein by reference in their entireties.
(§4) A numerical score or Fractional Inhibitory Concentration (FIC) index was determined. The FIC index is equal to the sum of the values of FIC for the individual drugs:
(§5) An FIC index greater than 1.0 indicated an antagonistic interaction, an FIC index of 1.0 indicated addition, and an FIC index of less than or equal to 0.5 indicated synergism between the two test agents.
(§6) The organisms of this study were isolated from human burn patients. They included strains of methicillin resistant Staphylococcus aureus, and vancomycin resistant strains of Pseudomonas aeruginosa and Enterococcus faecalis. The bacterial isolates were propagated in or on Brain Heart Infusion broth (BHI), Mueller-Hinton Broth (MHB), blood agar (BA), Mueller-Hinton agar (MBA), enterococcus agar (EA), or 2× nutrient agar (2× NA).
(§7) 307 (pub: Am. Soc. Microbiol. Williams and Wilkins, Baltimore 1970), incorporated herein by reference in its entirety.

[6] = test system: Pseudomonas aeruginosa; experiment: MIC/MBC and checkerboard of EDTA-Tris and neomycin; format: cell-based; conditions: in 50 mM Tris
Experimental: as §1, §2, §3, §4, §5, §6, §7

[7] = test system: Aeromonas sobria; experiment: MIC and FIC of EDTA and neomycin, Aeromonas isolated from ulcerated fish; format: cell-based; conditions: A. sobria
Experimental: (§8) This example describes a method for determining the FIC values set forth in Example 4. […] Agents and Chem. pp. 210-217 (1967); and Sparks et al., Vet. Res. Comm. 18:241-249 (1994). Each of the foregoing publications are incorporated herein by reference. […] Then 0.05 ml of an 18-hour old culture of a test organism, containing […] colony-forming units (CFU) ml, were added to each well. Controls for the culture and media were included in each plate. Plates were covered and incubated at 37° C. for 18-24 hours. A numerical score or Fractional Inhibitory Concentration (FIC) index was determined. The FIC index is equal to the sum of the values of FIC for the individual drugs: An FIC index greater than 1.0 indicated an antagonistic interaction, an FIC index of 1.0 indicated addition, and an FIC index of less than or equal to 0.5 indicated synergism between the two test agents.

[8] = test system: Aeromonas caviae; experiment: as above; format: cell-based; conditions: A. caviae
Experimental: as §8

[9] = test system: Pseudomonas aeruginosa; experiment: MIC/MBC of Tris, EDTA, cocamidopropyl betaine and silver combinations, human burn isolates; format: cell-based; conditions: P. aeruginosa isolated from a human burn patient; x = multiple of the stock solution
[10] = test system: Malassezia pachydermatis; experiment: MIC/MBC of cocamidopropyl betaine, Tris-EDTA and their combination, dog isolates; format: cell-based
Experimental: (§9) The formulation was tested against Pseudomonas aeruginosa, Proteus mirabilis, Escherichia coli, Staphylococcus intermedius, Malessezia pachydermatis, and Candida albicans.

[11] = test system: Proteus mirabilis; experiment: as above; format: cell-based
Experimental: as §9

[12] = test system: Escherichia coli; experiment: as above; format: cell-based
Experimental: as §9

[13] = test system: Staphylococcus intermedius; experiment: as above; format: cell-based
Experimental: as §9

[14] = test system: Pseudomonas aeruginosa; experiment: as above; format: cell-based
Experimental: as §9

[15] = test system: Candida albicans; experiment: as above; format: cell-based
Experimental: as §9

[16] = test system: Staphylococcus aureus; experiment: MIC/MBC of Tris, EDTA, cocamidopropyl betaine and silver combinations, human burn isolates; format: cell-based; conditions: S. aureus isolated from a human burn patient; x = multiple of the stock solution
[17] = test system: Staphylococcus aureus; experiment: MIC/MBC and checkerboard of EDTA-Tris and neomycin; format: cell-based; conditions: in 50 mM Tris
Experimental: as §1, §2, §3, §4, §5, §6, §7

[18] = test system: Aeromonas hydrophila; experiment: MIC and FIC of EDTA and neomycin, Aeromonas isolated from ulcerated fish; format: cell-based; conditions: A. hydrophila
Experimental: as §8

[19] = M. pachydermatis from dogs, x = multiple of the 1x stock solution
[20] = P. mirabilis from dogs, x = multiple of the 1x stock solution
[21] = E. coli isolated from a dog with otitis externa, x = multiple of the 1x stock solution
[22] = S. intermedius from dogs, x = multiple of the 1x stock solution
[23] = P. aeruginosa from dogs with otitis externa and pyoderma, x = multiple of the 1x stock solution
[24] = C. albicans from dogs, x = multiple of the 1x stock solution

`CC1(C)S[C@@H]2[C@H](NC(=O)[C@H](N)c3ccccc3)C(=O)N2[C@H]1C(=O)O` [Am, ampicillin] was tested, and the Antibiotic resistance profile [1] was “R”, the Antibiotic resistance profile [2] was “R^B” and the Antibiotic resistance profile [3] was “S”.
In the case of `NCC[C@H](O)C(=O)N[C@@H]1C[C@H](N)[C@@H](O[C@H]2O[C@H](CN)[C@@H](O)[C@H](O)[C@H]2O)[C@H](O)[C@H]1O[C@H]1O[C@H](CO)[C@@H](O)[C@H](N)[C@H]1O` [Amikacin], the Healing of ulcers [4] is reported as “failed to heal visible ulcers”.
For `C[C@H]1[C@H](NC(=O)/C(=N\OC(C)(C)C(=O)O)c2csc(N)n2)C(=O)N1S(=O)(=O)O` [Azactam], the Healing of ulcers [4] was “failed to heal visible ulcers”.
`CCN1CCN(c2cc3c(cc2F)c(=O)c(C(=O)O)cn3C2CC2)CC1` [Baytril] was tested, and the Healing of ulcers [4] was “failed to heal visible ulcers”.
`O=C(N[C@H](CO)[C@H](O)c1ccc([N+](=O)[O-])cc1)C(Cl)Cl` [C, chloramphenicol] was tested, and the Antibiotic resistance profile [1] was “R”, the Antibiotic resistance profile [2] was “I” and the Antibiotic resistance profile [3] was “R”.
In the case of `CC[C@H]1OC(=O)[C@H](C)[C@@H](O[C@H]2C[C@@](C)(OC)[C@@H](O)[C@H](C)O2)[C@H](C)[C@@H](O[C@@H]2O[C@H](C)C[C@H](N(C)C)[C@H]2O)[C@](C)(O)C[C@@H](C)C(=O)[C@H](C)[C@@H](O)[C@]1(C)O` [E, erythromycin], the Antibiotic resistance profile [1] is reported as “R”, the Antibiotic resistance profile [2] is reported as “R” and the Antibiotic resistance profile [3] is reported as “R”.
With `O=C(O)CN(CCN(CC(=O)O)CC(=O)O)CC(=O)O` [EDTA, ethylenediaminetetraacetate] the “MBC, individually administered” value [5] was 250 mM, the “MBC, individually administered” value [6] was 250 mM and the “MIC, EDTA in 50 mM Tris alone” value [7] was 15.6. The “MIC, EDTA in 50 mM Tris alone” value [8] was under 0.49.
In the case of `Cc1noc(NS(=O)(=O)c2ccc(N)cc2)c1C` [G, sulfisoxazole], the Antibiotic resistance profile [1] is reported as “R”, the Antibiotic resistance profile [2] is reported as “S” and the Antibiotic resistance profile [3] is reported as “R”.
For `NC[C@H]1O[C@H](O[C@H]2[C@H](O)[C@@H](O[C@H]3O[C@H](CO)[C@@H](O)[C@H](N)[C@H]3O)[C@H](N)C[C@@H]2N)[C@H](O)[C@@H](O)[C@@H]1O` [K, kanamycin], the Antibiotic resistance profile [1] was “R”, the Antibiotic resistance profile [2] was “R” and the Antibiotic resistance profile [3] was “R”.
`CCn1cc(C(=O)O)c(=O)c2ccc(C)nc21` [NA, nalidixic acid] was tested, and the Antibiotic resistance profile [1] was “R”, the Antibiotic resistance profile [2] was “R” and the Antibiotic resistance profile [3] was “R”.
In the case of `[H]/N=C(/N)N[C@H]1[C@H](O)[C@@H](O)[C@H](O[C@@H]2O[C@@H](C)[C@](O)(C=O)[C@H]2O[C@@H]2O[C@@H](CO)[C@H](O)[C@@H](O)[C@@H]2NC)[C@@H](N/C(N)=N\[H])[C@@H]1O` [S, streptomycin], the Antibiotic resistance profile [1] is reported as “R”, the Antibiotic resistance profile [2] is reported as “S” and the Antibiotic resistance profile [3] is reported as “R”.
`CN(C)[C@@H]1C(O)=C(C(N)=O)C(=O)[C@@]2(O)C(O)=C3C(=O)c4c(O)cccc4[C@@](C)(O)[C@H]3C[C@@H]12` [Te, tetracycline] was tested, and the Antibiotic resistance profile [1] was “R”, the Antibiotic resistance profile [2] was “S” and the Antibiotic resistance profile [3] was “R”.
In the case of `CN[C@H](CC(C)C)C(=O)N[C@H]1C(=O)N[C@@H](CC(N)=O)C(=O)N[C@H]2C(=O)N[C@H]3C(=O)N[C@H](C(=O)N[C@H](C(=O)O)c4cc(O)cc(O)c4-c4cc3ccc4O)[C@H](O)c3ccc(c(Cl)c3)Oc3cc2cc(c3O[C@@H]2O[C@H](CO)[C@@H](O)[C@H](O)[C@H]2O[C@H]2C[C@](C)(N)[C@H](O)[C@H](C)O2)Oc2ccc(cc2Cl)[C@H]1O` [Va, vancomycin], the Antibiotic resistance profile [1] is reported as “R”, the Antibiotic resistance profile [2] is reported as “S” and the Antibiotic resistance profile [3] is reported as “R”.
For cocamidopropyl betaine, the MBC [9] was 0.5x, the MIC [9] was 0.25x and the MBC ([10]; M. pachydermatis) was 0.3% of stock solution. For the same compound, the MIC ([10]; M. pachydermatis) was 0.1% of stock solution, the MBC [10, 19] was 0.003x and the MIC [10, 19] was 0.001x. The MBC ([11]; P. mirabilis) was 50% of stock solution, the MIC ([11]; P. mirabilis) was 25% of stock solution and the MBC [11, 20] was 0.5x. For the same compound, the MIC [11, 20] was 0.25x, the MBC ([12]; E. coli) was 50% of stock solution and the MIC ([12]; E. coli) was 25% of stock solution. For the same compound, the MBC [12, 21] was 0.5x, the MIC [12, 21] was 0.25x and the MBC ([13]; S. intermedius) was 0.1% of stock solution. The MIC ([13]; S. intermedius) was 0.1% of stock solution, the MBC [13, 22] was 0.001x and the MIC [13, 22] was 0.001x. The MBC ([14]; P. aeruginosa) was 50% of stock solution, the MIC ([14]; P. aeruginosa) was 25% of stock solution and the MBC [14, 23] was 0.5x. For the same compound, the MIC [14, 23] was 0.25x, the MBC ([15]; C. albicans) was 0.3% of stock solution and the MIC ([15]; C. albicans) was 0.1% of stock solution. The MBC [15, 24] was 0.003x, the MIC [15, 24] was 0.001x and the MBC [16] was 0.001x. It also gave an MIC [16] of 0.001x.
gentamicin [GM] was tested, and the Antibiotic resistance profile [1] was “I”, the Antibiotic resistance profile [2] was “S” and the Antibiotic resistance profile [3] was “R”.
neomycin was tested, and the Antibiotic resistance profile [1] was “R”, the Antibiotic resistance profile [2] was “R” and the “MBC, individually administered” value [5] was 25.0 mg/mL. For the same compound, the “MBC, individually administered” value [17] was 3.13 mg/mL, the “MBC, individually administered” value [6] was 5.0 mg/mL and the “MIC, neomycin alone” value [18] was 0.2 mg/mL. The “MIC, neomycin alone” value [7] was 0.0125 mg/mL, the “MIC, neomycin alone” value [8] was 0.0125 mg/mL and the Antibiotic resistance profile [3] was “R”.
In the case of oxacillin/methicillin, the Antibiotic resistance profile [1] is reported as “R”, the Antibiotic resistance profile [2] is reported as “R” and the Antibiotic resistance profile [3] is reported as “R”.
